Source: US20260274814A1, “THIENYL COMPOUNDS FOR THE TREATMENT OF A CENTRAL NERVOUS SYSTEM DISEASE OR DISORDER” (Coreterra Therapeutics, Inc., priority 2023, published 2026)
Structures can show the parent of a compound that is named as a salt.

Tested on: mice
Test: Neuropharmacological Assay (SmartCube): automated behavioral signature of compound-treated mice compared with a database of reference drug classes
Type: in vivo
Conditions: for MED (minimal effective dose) / minimal effective dose: dose having 45% or more total activity in SmartCube, i.p., if only one dose was tested, that dose is shown; for AG / AN / AP / HL / MS / PS / SH / AD / AX / CE / UK: probability that activity matches this class of agents, 3.0 mg/kg i.p., 15 min before test; for minimal effective dose: Mus musculus, ip, read-out: MED (minimal effective dose)
Text: Neurosci. 2011 Sep. 9; 5: 103 (doi: 10.3389/fnins.2011.00103) (“Roberds”). As reported in Roberds, because psychiatric diseases generally result from disorders of cell-cell communication or circuitry, intact systems are useful in detecting improvement in disease-relevant endpoints. These endpoints are typically behavioral in nature, often requiring human observation and interpretation. To facilitate testing of multiple compounds for behavioral effects relevant to psychiatric disease, PsychoGenics, Inc. (Tarrytown, NY, “PGI”) developed SmartCube™ an automated system in which behaviors of compound-treated mice are captured by digital video and analyzed with computer algorithms. (D. Brunner et al. Drug Discov. Today 2002, 7:S107-S112). PGI Analytical Systems uses data from SmartCube™ to compare the behavioral signature of a test compound to a database of behavioral signatures obtained using a large set of diverse reference compounds. (The composition of the database as well as validation of the method is further described in Roberds). In this way, the neuropharmacological effects of a test compound can be predicted by similarity to major classes of compounds, such as antipsychotics, anxiolytics and antidepressants.
The SmartCube™ system produces an activity signature indicating the probability that the activity of the test compound at the administered dose matches a given class of neuropharmacological agents. (See, e.g., Roberds, FIGS. 2 and 3). The test compound is simultaneously compared against multiple classes of agents; thus, a separate probability is generated for each behavioral effect measured (e.g., anxiolytic activity, analgesic activity, etc.). In table 2 below, these probabilities are reported for each behavioral effect measured as described in Table 1 below.
Provided compounds were dissolved in a mixture of Pharmasolve™ (N-methyl-2-pyrrolidone), polyethylene glycol and propylene glycol, and were injected i.p. 15 min. before the behavioral test. For each compound, injections were administered at 3 different doses. For each behavioral effect measured, results for the 3.0 mg/kg dose are presented. The potency of many of the compounds in the table was also determined in the SmartCube™ system. Test compounds were routinely examined at dose levels of 0.3, 1, 3 and 10 mg per kg (mpk), although the dose range was increased or decreased, if necessary, to obtain a full dose response curve. A compound's minimal effective dose (MED) is a measure of the compound's potency. The MED was defined as the dose (in mpk) having 45% or more total activity in SmartCube. If only one dose was tested, that dose is shown in the MED column of Table 2 even though the dose is not known to be the MED.

| Structure (SMILES) | MED (minimal effective dose) (hydrochloride) | AG | AN | AP | HL | MS | PS | SH | AD (hydrochloride, 3 mg/kg) | AX (hydrochloride, 3 mg/kg) | CE (hydrochloride, 3 mg/kg) | UK (hydrochloride, 3 mg/kg) | minimal effective dose | AD | AX | CE | MED (minimal effective dose) | AP (hydrochloride, 3 mg/kg) | SH (hydrochloride, 3 mg/kg) | UK |
| --- | --- | --- | --- | --- | --- | --- | --- | --- | --- | --- | --- | --- | --- | --- | --- | --- | --- | --- | --- | --- |
| CNC1Cc2ccsc2C1.Cl (single isomer, unassigned) [Compound 19, N-methyl-5,6-dihydro-4H-cyclopenta[b]thiophen-5-amine hydrochloride] | 3.0 mpk | ND (^ <4%) | ND (^ <4%) | + (≥4%) | ND (^ <4%) | ND (^ <4%) | ND (^ <4%) | ND (^ <4%) | ++ (≥24%) | ++ (≥24%) | ND (^ <4%) | + (≥4%) |  |  |  |  |  |  |  |  |
| CNC1Cc2ccsc2C1.Cl (single isomer, unassigned) [Compound 20, N-methyl-5,6-dihydro-4H-cyclopenta[b]thiophen-5-amine hydrochloride] | 1.0 mpk | ND (^ <4%) | ND (^ <4%) | + (≥4%) | ND (^ <4%) | ND (^ <4%) | ND (^ <4%) | ND (^ <4%) | ++++ (≥74%) | + (≥4%) | + (≥4%) | ND (^ <4%) |  |  |  |  |  |  |  |  |
| Cl.c1cc2c(s1)CC(N1CCOCC1)CC2 (single isomer, unassigned) [Compound 22, 4-(4,5,6,7-tetrahydrobenzo[b]thiophen-6-yl)morpholine hydrochloride] |  | ND (^ <4%) | ND (^ <4%) | ND (^ <4%) | ND (^ <4%) | ND (^ <4%) | ND (^ <4%) | ND (^ <4%) |  |  |  | + (≥4%) | > 10 mg/kg | ND (^ <4%) | ND (^ <4%) | ND (^ <4%) |  |  |  |  |
| Cl.c1cc2c(s1)CC(N1CCOCC1)CC2 (single isomer, unassigned) [Compound 23, 4-(4,5,6,7-tetrahydrobenzo[b]thiophen-6-yl)morpholine hydrochloride] |  | ND (^ <4%) | ND (^ <4%) | ND (^ <4%) | ND (^ <4%) | ND (^ <4%) | ND (^ <4%) | ND (^ <4%) |  |  |  | ND (^ <4%) |  | ND (^ <4%) | ND (^ <4%) | ND (^ <4%) | >10 mpk |  |  |  |
| CNC1CCCc2ccsc2C1.Cl (single isomer, unassigned) [Compound 25, N-methyl-5,6,7,8-tetrahydro-4H-cyclohepta[b]thiophen-7-amine hydrochloride] | 1.0 mpk | ND (^ <4%) | ND (^ <4%) |  | ND (^ <4%) | ND (^ <4%) | ND (^ <4%) |  |  |  | ND (^ <4%) | ND (^ <4%) |  | ND (^ <4%) | ND (^ <4%) |  |  | ++++ (≥74%) | ND (^ <4%) |  |
| CNC1CCCc2ccsc2C1.Cl (single isomer, unassigned) [Compound 26, N-methyl-5,6,7,8-tetrahydro-4H-cyclohepta[b]thiophen-7-amine hydrochloride] | 3.0 mpk | ND (^ <4%) | ND (^ <4%) |  | ND (^ <4%) | ND (^ <4%) | ND (^ <4%) |  |  |  | + (≥4%) | ++ (≥24%) |  | ND (^ <4%) | ND (^ <4%) |  |  | ND (^ <4%) | + (≥4%) |  |
| CNC1CCc2cc(C)sc2C1 (single isomer, unassigned) [Compound 28, N, 2-dimethyl-4,5,6,7-tetrahydrobenzothiophen-6-amine hydrochloride] | 3.0 mpk | ND (^ <4%) | ND (^ <4%) |  | ND (^ <4%) | ND (^ <4%) | ND (^ <4%) | ND (^ <4%) | +++ (≥49%) |  |  | ND (^ <4%) |  |  | ++ (≥24%) | ND (^ <4%) |  | ND (^ <4%) |  |  |
| CNC1CCc2cc(C)sc2C1 (single isomer, unassigned) [Compound 29, N, 2-dimethyl-4,5,6,7-tetrahydrobenzothiophen-6-amine hydrochloride] | 1.0 mpk | ND (^ <4%) | ND (^ <4%) |  | ND (^ <4%) | ND (^ <4%) | ND (^ <4%) | ND (^ <4%) | ND (^ <4%) |  |  | + (≥4%) |  |  | ++ (≥24%) | ND (^ <4%) |  | +++ (≥49%) |  |  |
| CNC1CCc2c(C)sc(C)c2C1 (single isomer, unassigned) [Compound 30, N, 1,3-trimethyl-4,5,6,7-tetrahydro-2-benzothiophen-5-amine hydrochloride] | 0.3 mpk | ND (^ <4%) | ND (^ <4%) |  | ND (^ <4%) | ND (^ <4%) | ND (^ <4%) |  |  | ND (^ <4%) |  |  |  | ND (^ <4%) |  | ND (^ <4%) |  | ++++ (≥74%) | + (≥4%) | ND (^ <4%) |
| CNC1CCc2c(C)sc(C)c2C1 (single isomer, unassigned) [Compound 31, N, 1,3-trimethyl-4,5,6,7-tetrahydro-2-benzothiophen-5-amine hydrochloride] | 3.0 mpk | ND (^ <4%) | ND (^ <4%) |  | ND (^ <4%) | ND (^ <4%) | ND (^ <4%) |  |  | ++ (≥24%) |  |  |  | ND (^ <4%) |  | ND (^ <4%) |  | +++ (≥49%) | ND (^ <4%) | ND (^ <4%) |
| CNC1CCc2c(csc2C)C1 (single isomer, unassigned) [Compound 32, N, 1-dimethyl-4,5,6,7-tetrahydro-2-benzothiophen-5-amine hydrochloride] | 1.0 mpk | ND (^ <4%) | ND (^ <4%) |  | ND (^ <4%) | ND (^ <4%) | ND (^ <4%) | ND (^ <4%) |  | ++ (≥24%) |  |  |  | +++ (≥49%) |  | ND (^ <4%) |  | + (≥4%) |  | ND (^ <4%) |
| CNC1CCc2c(csc2C)C1 (single isomer, unassigned) [Compound 33, N, 1-dimethyl-4,5,6,7-tetrahydro-2-benzothiophen-5-amine hydrochloride] | 0.3 mpk | ND (^ <4%) | ND (^ <4%) |  | ND (^ <4%) | ND (^ <4%) | ND (^ <4%) | ND (^ <4%) |  | ND (^ <4%) |  |  |  | +++ (≥49%) |  | ND (^ <4%) |  | ++ (≥24%) |  | ND (^ <4%) |
| Cc1cc2c(s1)CC(N(C)C)CC2.Cl (single isomer, unassigned) [Compound 34, N,N, 2-trimethyl-4,5,6,7-tetrahydrobenzothiophen-6-amine hydrochloride] |  | ND (^ <4%) | ND (^ <4%) | ND (^ <4%) | ND (^ <4%) | ND (^ <4%) | ND (^ <4%) | ND (^ <4%) |  |  |  |  | 10 mg/kg | ND (^ <4%) | ND (^ <4%) | ND (^ <4%) |  |  |  | ++ (≥24%) |
| Cc1cc2c(s1)CC(N(C)C)CC2.Cl (single isomer, unassigned) [Compound 35, N,N, 2-trimethyl-4,5,6,7-tetrahydrobenzothiophen-6-amine hydrochloride] |  |  |  |  |  |  |  |  |  |  |  |  |  | ND (^ <4%) |  |  | 10 mpk |  |  | ++ (≥24%) |
